Two compounds from EP4121415B1, “INHIBITORS OF CYTOKININ OXIDASE DERIVED FROM 1-[2-(HYDROXYALKYL)PHENYL]-3-YLUREA, USE THEREOF AND PREPARATIONS CONTAINING THESE DERIVATIVES” (Univerzita Palackého v Olomouci, priority 2020, dated 2021) can be followed below.

One assay has as its system winter rapeseed. The experiment in a line: field trial, foliar application, seed yield of winter rapeseed. Format: in vivo. Conditions: 5 µM in 300 L per hectare; for weight of one thousand seeds: control 5.51 g; for seed yield compared to the control (100 %): foliar. The method, then: In 2017, the effect of foliar application of compound 61 (5 µM concentration in a volume of 300 L per hectare) on seed yield of winter rapeseed in field conditions was determined. The field trials were performed according to "good agricultural practice". Substance 61 was applied to plants in two different growth phases - BBCH 30 and BBCH 33-35. […] The weight of one thousand seeds in the treated plants was 5.7 g (BBCH 30) and 5.8 g (BBCH 33-35). This phenomenon contributed to the increase in total seed yield.

In assay [1] the target is T1, maize enzyme cytokinin oxidase/dehydrogenase 1 (ZmCKX1) (Zea mays, UniProt Q9T0N8).
T1 construct: made in house; host or cells: Yarrowia lipolytica
The experiment in a line: ZmCKX1 inhibition, PMS/MTT assay. Format: biochemical. Background: Tetrazolium dyes change colour on reduction, which living cells bring about.

Assay [2] deals with Arabidopsis thaliana. The experiment in a line: foliar application, lifespan of Arabidopsis under optimal conditions. Format: in vivo. As to conditions: sprayed with 0.1 µM aqueous solution in phase of 4 true leaves, n = 25, compared to control plants. How it is done:
Young Arabidopsis thaliana plants grown in small pots in a soil were sprayed with a 0.1 µM aqueous solution of substance 61 in phase of 4 true leaves (within 14-20 days after sowing).
Treated plants (n = 25) and control plants (n = 25) were further grown under optimal conditions until their natural death as in Example 25. […] The treated plants remained more green for a longer period of time (delayed senescence), which allowed them to accumulate more products of photosynthesis, which in turn may have contributed to a higher yield of these plants.

Assay [3] has as its system segments of wheat leaves (Triticum aestivum cv. Hereward). Kind of assay: wheat leaf senescence assay performed in the dark (chlorophyll retention in detached leaf segments). As to conditions: Triticum aestivum, foliar, read-out: (% of chlorophyll above control). It counts as in vivo. How it is done: Seeds of winter wheat (Triticum aestivum cv. Hereward) was washed under running water for 4 hours and then sown in vermiculite saturated with Knop's nutrient solution. The trays with seeds were placed in an air-conditioned growth chamber with a 16/8 hour light regime (light intensity 50 µmol.m^-2.s^-1) and a temperature of 15 °C. After 7 days, the seedlings had developed the first […] and the second leaf began to grow. Top sections approximately 4 cm long were excised from the first leaves of 4 plants and their combined weight was adjusted to exactly 100 mg. The basal ends of these 4 leaf segments were placed in the wells of microtiter polystyrene plates containing solution (150 µL) of the tested derivative. The plates were placed in a plastic box with filter paper, which was saturated with water (to maintain the maximum humidity). After 96 hours of incubation in the dark at 25 °C, the leaf segments were removed and the chlorophyll was extracted to 5 mL of 80% ethanol by heating the leaf segments in ethanol at 80 °C for 40 min. The sample volume was then adjusted to 5 mL by adding 80% ethanol. The absorbance of the extracts was measured at 665 nm. Chlorophyll extracts from leaf segments incubated in deionized water (so-called yellow control) were also measured as controls. Freshly cut leaves (100 mg) were used as a green control, from which chlorophyll was extracted and measured in the same manner. The calculated values are the average of 5 replicates and the whole experiment was repeated two times. The tested compounds were dissolved in dimethyl sulfoxide (DMSO) to a concentration 10^-2 M. This stock solution was further diluted with water to a concentration of 10 micromolar. At this concentration, the substances were tested.

Assay [4] deals with Arabidopsis thaliana. Kind of assay: foliar application, seed yield in Arabidopsis. Format: in vivo. The method, then:
In our experiment, young Arabidopsis thaliana plants were grown in small pots in soil and they were sprayed with a 0.1 µM compound 61 (aq solution) in phase of 4 true leaves (about 14-20 days after sowing). Treated plants (n = 25) and control plants (n = 25) were further grown under optimal conditions until their natural death. Subsequently, seeds were harvested from all plants and the yield was evaluated. […] This means a 19 % increase in total seed yield.
This means an increase in total seed yield of 23 %.

In assay [5] the test system is Arabidopsis thaliana (ecotype Col-0). The experiment in a line: abiotic stress (saline, osmotic) assay on Arabidopsis seedlings. It counts as in vivo. As to conditions: 10 nM, 6 days of growth after transfer. How it is done:
Compound 61 was tested for its ability to alleviate the effects of abiotic stress, represented by application of 100 mM NaCl (saline stress) or 100 mM mannitol (osmotic stress), respectively. The assay was performed as described in (Ugena et al., 2018, Front Plant Sci. 9, 1327. doi: 10.3389/fpls.2018.01327). Arabidopsis thaliana (ecotype Col-0) seeds were germinated on full MS growth medium for three days without presence of any treatment. After that they were transferred to the same medium containing 10 nM concertation of compound 61 in the absence or presence of the abiotic stress factor. Dimethyl sulfoxide (DMSO) was used as a solvent control (mock) in all variants. The dynamics of the shoot biomass formation and the relative growth rate were evaluated by recording the green area twice a day during the 6 days of growth after the seedling transfer. The abiotic stress conditions caused severe penalty in both traits evaluated. The salt and mannitol stress reduced the shoot yield by 63 % and 42 %, respectively, whereas presence of the compound 61 turned back the penalty by almost 20 % (Table 3 and Fig. 1). […] 11 % (Table 3).

Assay [6] relates to winter wheat (Triticum aestivum cv. Hereward). The experiment in a line: salt-induced senescence of wheat plants. It counts as in vivo. Conditions: 100 nM aqueous solution, 75 mM NaCl seven days after planting, assessed 30 days after planting. The method, then:
To investigate the effects of compounds 64 and 66 on salt-induced senescence, seeds of winter wheat (Triticum aestivum cv. Hereward) were washed under running water for 4 hours and then sown on perlite soaked with water (control) or 100 nM aqueous solution of compounds 64 or 66. Trays with seeds were placed in a growth chamber at 25 °C for 16/8 h light/dark at an intensity of 50 µmol.m^-2.s^-1. Seven days after planting, the plants were treated with 75 mM NaCl solution. The plants were allowed to grow and the plant damage was assessed 30 days after planting.
While untreated plants have the first leaves dead and the second leaves yellow, plants treated with CKX inhibitors have the first leaves yellowing and the second leaves green. […] This in vivo experiment is evidence that CKX inhibitors prolong the photosynthetic activity of wheat plants that have been exposed to environmental stress.

The mark [7] stands for this setting: sprayed with 0.1 µM aq solution in phase of 4 true leaves, n = 25, optimal conditions.

Molecules are shown by their SMILES. Values joined by “and” are separate entries in the source; they are usually repeats but may differ in a detail not shown here. Identical values can stand only once. Like-named read-outs stand apart in the source and are kept apart here.

T1 sequence (Q9T0N8 19-534): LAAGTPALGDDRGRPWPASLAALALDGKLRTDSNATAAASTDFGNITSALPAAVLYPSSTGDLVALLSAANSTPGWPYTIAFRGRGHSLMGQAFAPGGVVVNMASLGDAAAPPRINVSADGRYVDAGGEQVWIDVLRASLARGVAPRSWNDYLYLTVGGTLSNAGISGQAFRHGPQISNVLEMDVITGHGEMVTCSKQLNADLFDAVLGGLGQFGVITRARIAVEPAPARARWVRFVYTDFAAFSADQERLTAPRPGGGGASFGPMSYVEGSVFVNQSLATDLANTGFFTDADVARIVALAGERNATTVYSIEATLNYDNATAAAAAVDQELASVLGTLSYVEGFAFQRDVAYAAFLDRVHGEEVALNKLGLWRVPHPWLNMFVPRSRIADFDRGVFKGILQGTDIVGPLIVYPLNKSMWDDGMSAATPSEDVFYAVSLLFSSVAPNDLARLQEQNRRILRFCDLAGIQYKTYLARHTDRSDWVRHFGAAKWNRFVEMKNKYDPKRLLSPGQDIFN

As usually defined, the IC50 is the concentration that gives 50% inhibition. As for `O=C(Nc1cccc(OC(F)(F)F)c1)Nc1ccccc1CCO` [Compound 61, 1-[2-(2-Hydroxyethyl)phenyl]-3-(3-trifluoromethoxyphenyl)urea], the “weight of one thousand seeds” value with winter rapeseed (applied at BBCH 30) stood at 5.7 g; in the assay with winter rapeseed (applied at BBCH 33-35), 5.8 g. In addition, the “seed yield compared to the control (100 %)” value came to 105.7% in the assay with winter rapeseed (applied at BBCH 30, 2017) and 107.5% in the assay on winter rapeseed (applied at BBCH 33-35, 2017). It took 0.18 µM to reach half-maximal inhibition in assay [1] (IC50). The “longer viability (average)” value with Arabidopsis thaliana [2] was 10 days. For the same compound, the activation at 10 µM in assay [3] (96 h) was found to be 24%. Moreover, the “increase in total seed yield” value with Arabidopsis thaliana [4] (0.1 µM spray, compared to control plants) was 19% and 23%. Besides, in the assay with Arabidopsis thaliana [4] (setting [7]), the “seeds per silique (average)” value is 52 (± 4) and 49 (± 6). The “total seed yield per plant” value in the assay with Arabidopsis thaliana [4] (setting [7]) is 155 (± 19) mg and 138 (± 15) mg. Further, in assay [5] (100 mM NaCl (saline stress) or 100 mM mannitol (osmotic stress)), the “shoot yield: penalty caused by stress turned back” value is reported as approximately 20%. Further, the “average relative growth rate: effect of the stressors reduced” value in assay [5] (100 mM NaCl or 100 mM mannitol) is listed as approximately 11%.

Consider `O=C(Nc1cc(NCCO)cc(OC(F)(F)F)c1)Nc1ccccc1CCO` [Compound 66, 1-[3-(2-Hydroxyethylamino)-5-trifluoromethoxyphenyl]-3-[2-(2-hydroxyethyl)phenyl]urea], for which, in assay [1] (10 µM N6-isopentenyladenine (iP) as substrate, pH 7.4, 30 min at 37 °C, average of at least two measurements, read-out: IC50 (µM) ZmCKX1), the IC50 was determined as 0.029 µM. Besides, in assay [6], the “plant damage and senescence under salinity stress” value is “reduced the damage and delayed the senescence”; the “total chlorophyll content in whole plants: untreated salinity-stressed plants have less chlorophyll than treated stressed plants” value is listed as 27%. In assay [3] (10 micromolar, 96 hours in the dark at 25 °C, compared to yellow control (0,2% DMSO)), the activation at 10 µM was 36%.
